# Measured values: patent publication US20230227426A1 (Akebia Therapeutics, Inc., priority 2020, published 2023)
# Tests used:
# Type in all cases: biochemical
# [1] = target: T1, full-length human PHD1 (Homo sapiens, UniProt Q96KS0); experiment: TR-FRET assay for PHD enzymes, PHD1
# T1 construct: FLAG (N); purchased Active Motif (Carlsbad, Calif., USA) 81064; host or cells: baculovirus expression system
# Description: (§1) The resulting proximity of the donor fluorophore complex, monoclonal antibody anti-6His-Terbium (Tb)-cryptate Gold, bound to the His-tagged VHL protein, EloB, EloC complex (His-VBC) and the acceptor fluorophore, SA-D2 complex, bound to HIF-1α-hydroxyproline results in a fluorescence resonance energy transfer signal that can be detected and quantified
# Recombinant human PHD1 protein (catalog #81064, Lot #24717001) was purchased from Active Motif (Carlsbad, Calif., USA). PHD1 was expressed in a baculovirus expression system as the full-length protein (NCBI accession number NP_542770.2) with an N-terminal FLAG tag (molecular weight 44.9 kDa). Purity (>90%) was assessed by SDS-PAGE.
# (§2) For this, 5 μL PHD inhibitor compound was serially diluted with dilution buffer (50 mM HEPES [4-(2-hydroxyethyl)-1-piperazineethanesulfonic acid] pH 7.5, 50 mM sodium chloride [NaCl], 0.01% Tween-20, 0.01% purified bovine serum albumin [BSA]) and mixed with 5 μL PHD enzyme mix prepared as a 4× concentrate in the dilution buffer containing PHD enzyme (60 nM PHD1, 20 nM PHD2, 140 nM PHD3), 40 μM ferrous ammonium sulfate (FAS), 4 mM sodium (Na) ascorbate.
# (§3) The IC50 values (mean, standard deviation, standard error of the mean, geometric mean and 95% confidence interval) were determined using a four-parameter curve-fit using GraphPad Prism 7.0 (GraphPad, La Jolla, Calif., USA) and represent the compound concentration plotted against the calculated ratio of 665 nm and 615 nm.
# [2] = target: T2, full-length human PHD2 (Homo sapiens, UniProt Q9GZT9); experiment: TR-FRET assay for PHD enzymes, PHD2; details: read-out: PHD2 IC5 0
# T2 construct: The PHD2 construct contained amino acids 1 to 426 of PHD2; His tag (N, cleaved yes); TEV protease cleavage site (N, cleaved yes); host or cells: Sf9 insect cells (baculovirus)
# T2 sequence (Q9GZT9 whole entry, the tested form may be a part): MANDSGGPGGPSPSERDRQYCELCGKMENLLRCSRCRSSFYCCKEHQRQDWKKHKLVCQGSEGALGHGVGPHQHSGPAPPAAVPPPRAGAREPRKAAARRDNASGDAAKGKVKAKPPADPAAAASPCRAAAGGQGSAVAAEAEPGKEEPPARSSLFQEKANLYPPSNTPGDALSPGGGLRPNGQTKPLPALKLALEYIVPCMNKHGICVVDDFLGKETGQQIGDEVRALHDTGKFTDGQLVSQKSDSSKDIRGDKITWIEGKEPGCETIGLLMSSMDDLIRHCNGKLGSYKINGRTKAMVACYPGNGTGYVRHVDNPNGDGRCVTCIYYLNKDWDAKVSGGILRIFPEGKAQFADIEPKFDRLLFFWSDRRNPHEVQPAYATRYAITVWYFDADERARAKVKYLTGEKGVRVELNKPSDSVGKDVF
# Protocol: as §1, §2, §3
# [3] = target: T3, full-length human PHD3 (Homo sapiens, UniProt Q9H6Z9); experiment: TR-FRET assay for PHD enzymes, PHD3
# T3 construct: 6-His (N); purchased Active Motif (Carlsbad, Calif., USA) 81033; host or cells: E. coli
# T3 sequence (Q9H6Z9 whole entry): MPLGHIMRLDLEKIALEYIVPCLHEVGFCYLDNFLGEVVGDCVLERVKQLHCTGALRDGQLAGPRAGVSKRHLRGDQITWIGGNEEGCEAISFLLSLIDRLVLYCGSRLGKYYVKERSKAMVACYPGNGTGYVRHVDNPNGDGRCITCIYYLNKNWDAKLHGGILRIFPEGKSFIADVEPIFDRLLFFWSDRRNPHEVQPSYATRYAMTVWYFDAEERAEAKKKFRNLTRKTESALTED
# Description: as §1
# Recombinant human PHD3 protein (molecular weight 31.1 kDa) was purchased from Active Motif (Carlsbad, Calif., USA). It was expressed in E. coli as the full-length protein (NCBI accession number NP_071356.1) with an N-terminal 6-His tag (catalog #81033, Lot #24417001).
# as §2, §3
# T1 sequence (Q96KS0 whole entry): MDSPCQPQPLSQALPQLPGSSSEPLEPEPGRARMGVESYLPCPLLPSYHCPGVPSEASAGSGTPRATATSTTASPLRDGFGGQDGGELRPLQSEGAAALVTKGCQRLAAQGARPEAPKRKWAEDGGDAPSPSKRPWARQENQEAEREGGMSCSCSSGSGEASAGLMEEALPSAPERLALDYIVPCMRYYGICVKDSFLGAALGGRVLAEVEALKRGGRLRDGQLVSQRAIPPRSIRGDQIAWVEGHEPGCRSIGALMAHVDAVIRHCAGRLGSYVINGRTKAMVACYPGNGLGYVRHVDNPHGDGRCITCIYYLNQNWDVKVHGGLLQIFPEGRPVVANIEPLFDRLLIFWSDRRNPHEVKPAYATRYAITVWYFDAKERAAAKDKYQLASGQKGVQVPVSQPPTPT
SMILES,IC50 [1] [nM],IC50 [2] [nM],IC50 [3] [nM]
"O=C(O)c1ccc(-n2ncc(-c3ccc(Cl)nc3)c2O)nc1 [Compound 17, 6-(4-(6-chloropyridin-3-yl)-5-hydroxy-1H-pyrazol-1-yl)nicotinic acid]",< 100,< 100,< 100
"Cc1cc(-n2nc(C)c(-c3ccc(C#N)cc3)c2O)ncc1C(=O)O [Compound 18, 6-(4-(4-cyanophenyl)-5-hydroxy-3-methyl-1H-pyrazol-1-yl)-4-methylnicotinic acid]",< 100,< 100,< 100
"N#Cc1ccc(-c2cnn(-c3ccc(C(=O)O)cn3)c2O)c(O)c1 [Compound 21, 6-(4-(4-cyano-2-hydroxyphenyl)-5-hydroxy-1H-pyrazol-1-yl)nicotinic acid]",< 100,< 100,100 to 1000
"Cc1cc(C#N)ccc1-c1c(C)nn(-c2ccc(C(=O)O)cn2)c1O [Compound 24, 6-(4-(4-cyano-2-methylphenyl)-5-hydroxy-3-methyl-1H-pyrazol-1-yl)nicotinic acid]",< 100,< 100,< 100
"Cc1nn(-c2ccc(C(=O)O)cn2)c(O)c1-c1ccc(Cl)c(F)c1 [Compound 26, 6-(4-(4-chloro-3-fluorophenyl)-5-hydroxy-3-methyl-1H-pyrazol-1-yl)nicotinic acid]",< 100,< 100,100 to 1000
"Cc1nn(-c2ccc(C(=O)O)cn2)c(O)c1-c1ccc(Cl)cc1F [Compound 28, 6-(4-(4-chloro-2-fluorophenyl)-5-hydroxy-3-methyl-1H-pyrazol-1-yl)nicotinic acid]",< 100,100 to 1000,100 to 1000
"COc1cc(-c2cnn(-c3ccc(C(=O)OC(C)(C)C)cn3)c2O)ccn1 [Compound 35, Tert-butyl 6-(5-hydroxy-4-(2-methoxypyridin-4-yl)-1H-pyrazol-1-yl)nicotinate]",< 100,< 100,< 100
"CCOC(=O)c1ccc(-n2ncc(-c3ccc(C#N)cc3)c2O)nc1 [Compound 36, Ethyl 6-(4-(4-cyanophenyl)-5-hydroxy-1H-pyrazol-1-yl)nicotinate]",< 100,< 100,< 100
"CC(C)OC(=O)c1ccc(-n2ncc(-c3ccc(C#N)cc3)c2O)nc1 [Compound 37, Isopropyl 6-(4-(4-cyanophenyl)-5-hydroxy-1H-pyrazol-1-yl)nicotinate]",< 100,< 100,< 100
"CC(C)(C)OC(=O)c1ccc(-n2ncc(-c3ccc(C#N)cc3)c2O)nc1 [Compound 38, Tert-butyl 6-(4-(4-cyanophenyl)-5-hydroxy-1H-pyrazol-1-yl)nicotinate]",< 100,< 100,1000 to 10000
"O=C(O)c1ccc(-n2ncc(-c3ccc(Cl)cc3O)c2O)nc1 [Compound 39, 6-(4-(4-chloro-2-hydroxyphenyl)-5-hydroxy-1H-pyrazol-1-yl)nicotinic acid]",100 to 1000,< 100,1000 to 10000
